Reference: patent US10562869B2, “Oxadiazole compounds” (REMYND NV, priority 2014, dated 2020)

test system: M17_3TAU(P301L) cells; assay: Retinoic acid-induced cytotoxicity (LDH) in TAU-P301L expressing M17_3TAU(P301L) neuroblastoma cells; assay type: cell-based; conditions: Homo sapiens, Neuroblastoma cell, 168 h; toxicity inhibition (LDH) in M17_3TAU(P301L) cells challenged with retinoic acid, 7 days
Excerpt: A TAU expression plasmid was constructed by sub-cloning the cDNA encoding for human TAU-P301L protein, wherein proline at position 301 was substituted by a leucine residue, into mammalian expression vector pcDNA3.1 resulting in the plasmid pcDNA3.1-TAUP301L. Plasmid pcDNA3.1-TAU P301L was transfected into human neuroblastoma cells (BE-M17; ATCC No. CRL-2267™) using lipofectamine reagent and subsequently, independent clonal cell lines with the plasmids stably integrated into the genome were selected by antibiotic resistance selection (Geneticin (G418)), resulting in cell line M17_3TAUP301L. Expression of the TAUP301L gene in the M17_3TAUP301L cells was confirmed by Western blot analysis.
M17_3TAU(P301L) cells were treated chronically with retinoic acid (RA) in low serum conditions to induce Alzheimer's disease-like intracellular signaling deregulation leading to increased TAU levels and subsequent cell death. Cytotoxicity of cells was measured by quantification of lactate dehydrogenase (LDH) levels. In dead cells LDH leaked out of the cells into the medium due to a loss of plasma-membrane integrity.
3 days preceding the experiment, a pre-culture of M17_3TAU(P301L) cells was prepared, starting from a stock culture, at a density of 50.000-100.000 cells/cm^2 in culture medium (Optimem Reduced Serum with phenol red (Invitrogen, Cat. 31985-047)) supplemented with 10% fetal calf serum (FCS), 1 mM sodium pyruvate, 1×non-essential amino acids (NEAA), 500 μg/ml G418 and 0.5×(ABAM). At the day of the experiment these precultures were diluted to ˜0.1·10^6 cells/ml in detection medium (Optimem Reduced Serum without phenol red (Gibco, Cat.11058-021) supplemented with 1% fetal calf serum (FCS), 1 mM sodium pyruvate, 1×non-essential amino acids (NEAA), 500 μg/ml G418 and 0.5×ABAM) and 60 μL of this suspension was dispensed per well into a 96-well microtiter plate. After 3 hours of incubation at 37° C./5% CO2 an equal volume of detection medium (without FCS) containing 3.75 μM RA was added and subsequently incubated for 7 days at 37° C./5% CO2. Then LDH activity was determined using the Promega Cytotox 96 Non-Radioactive cytotoxicity assay (Cat. G1780), according to the manufacturer's instructions. Cytotoxicity was defined as the ratio of LDH relative the total LDH in the cells and supernatant.
The assay described above using the M17_3TAU(P301L) cell line allowed to screen compounds for their ability to decrease cytotoxicity in RA-challenged cells. Compounds of the invention were tested for their ability to decrease toxicity at different concentrations, ranging from low non-effective concentrations to high potent concentrations. Afterwards, the dose-dependent inhibition curve was used to calculate their EC50. A compound was considered to be active in this test when it inhibited toxicity by more than 20% relative to untreated M17_3TAU(P301L) cells at a concentration of 10 μM or lower.

Q: How did the EC50 turn out when `COc1cccc(CCN2CCN(c3nc(Cc4ccc(Cl)cc4)no3)CC2)c1` [Cmpd056, 1-[3-(4-Chloro-benzyl)-[1,2,4]oxadiazol-5-yl]-4-[2-(3-methoxy-phenyl)-ethyl]-piperazine] was run?
A: The EC50 was 75 nM.

Q: `Cc1ccccc1CN1CCN(c2nc(Cc3ccc(Cl)cc3)no2)CC1` [Cmpd058, 1-[3-(4-Chloro-benzyl)-[1,2,4]oxadiazol-5-yl]-4-(2-methyl-benzyl)-piperazine] was tested. Which EC50 did it give?
A: Its EC50 is 177 nM.

Q: With `Clc1ccc(CCN2CCN(c3nc(Cc4ccc(Cl)cc4)no3)CC2)cc1` [Cmpd059, 1-[3-(4-Chloro-benzyl)-[1,2,4]oxadiazol-5-yl]-4-[2-(4-chloro-phenyl)-ethyl]-piperazine] as the compound, how does the EC50 read?
A: The EC50 was 220 nM.

Q: `COc1ccc(CCN2CCN(c3nc(Cc4ccc(Cl)cc4)no3)CC2)cn1` [Cmpd060, 1-[3-(4-Chloro-benzyl)-[1,2,4]oxadiazol-5-yl]-4-[2-(6-methoxy-pyridin-3-yl)-ethyl]-piperazine] was tested. Which EC50 did it give?
A: The EC50 was 74 nM.

Q: Which EC50 does the source give for `Fc1ccccc1CN1CCN(c2nc(Cc3ccc(Cl)cc3)no2)CC1` [Cmpd061, 3-(4-Chlorobenzyl)-5-(4-(2-fluorobenzyl)piperazin-1-yl)-1,2,4-oxadiazole] here?
A: The EC50 was 685 nM.

Q: For `Clc1ccc(Cc2noc(N3CCN(Cc4ccccc4Cl)CC3)n2)cc1` [Cmpd062, 1-(2-Chloro-benzyl)-4-[3-(4-chloro-benzyl)-[1,2,4]oxadiazol-5-yl]-piperazine], which EC50 is on record?
A: Its EC50 is 2 nM.

Q: Which EC50 does the source give for `Cc1ccc(CN2CCN(c3nc(Cc4ccc(Cl)cc4)no3)CC2)cc1` [Cmpd063, 1-[3-(4-Chloro-benzyl)-[1,2,4]oxadiazol-5-yl]-4-(4-methyl-benzyl)-piperazine] here?
A: Its EC50 is 174 nM.

Q: For `N#CCCCN1CCN(c2nc(Cc3ccc(Cl)cc3)no2)CC1` [Cmpd064, 4-{4-[3-(4-Chloro-benzyl)-[1,2,4]oxadiazol-5-yl]-piperazin-1-yl}-butyronitrile], which EC50 is on record?
A: The EC50 was 54 nM.

Q: Which EC50 does the source give for `CCOCCN1CCN(c2nc(Cc3ccc(Cl)cc3)no2)CC1` [Cmpd065, 1-[3-(4-Chloro-benzyl)-[1,2,4]oxadiazol-5-yl]-4-(2-ethoxy-ethyl)-piperazine] here?
A: Its EC50 is 763 nM.

Q: `CCCN1CCN(c2nc(Cc3ccc(Cl)cc3)no2)CC1` [Cmpd066, 1-[3-(4-Chloro-benzyl)-[1,2,4]oxadiazol-5-yl]-4-propyl-piperazine] was tested. Which EC50 did it give?
A: The EC50 was 145 nM.

Q: For `CC(C)CCN1CCN(c2nc(Cc3ccc(Cl)cc3)no2)CC1` [Cmpd067, 3-(4-Chlorobenzyl)-5-(4-isopentylpiperazin-1-yl)-1,2,4-oxadiazole], which EC50 is on record?
A: The EC50 was 22 nM.

Q: `FC(F)(F)CCCN1CCN(c2nc(Cc3ccc(Cl)cc3)no2)CC1` [Cmpd068, 1-[3-(4-Chloro-benzyl)-[1,2,4]oxadiazol-5-yl]-4-(4,4,4-trifluoro-butyl)-piperazine] was tested. Which EC50 did it give?
A: The EC50 was 151 nM.

Q: For `Clc1ccc(Cc2noc(N3CCN(CC4CCOCC4)CC3)n2)cc1` [Cmpd069, 3-(4-Chlorobenzyl)-5-(4-((tetrahydro-2H-pyran-4-yl)methyl)piperazin-1-yl)-1,2,4-oxadiazole], which EC50 is on record?
A: Its EC50 is 161 nM.

Q: For `CC(C)N1CCN(c2nc(Cc3ccc(Cl)cc3)no2)CC1` [Cmpd071, 3-(4-Chlorobenzyl)-5-(4-isopropylpiperazin-1-yl)-1,2,4-oxadiazole], which EC50 is on record?
A: Its EC50 is 133 nM.

Q: With `Cc1ccccc1CN1CCN(c2nc(Cc3cccc(Cl)c3)no2)CC1` [Cmpd075, 1-[3-(3-Chloro-benzyl)-[1,2,4]oxadiazol-5-yl]-4-(2-methyl-benzyl)-piperazine] as the compound, how does the EC50 read?
A: The EC50 was 238 nM.

Q: `COc1cccc(CCN2CCN(c3nc(Cc4cccc(Cl)c4)no3)CC2)c1` [Cmpd076, 1-[3-(3-Chloro-benzyl)-[1,2,4]oxadiazol-5-yl]-4-[2-(3-methoxy-phenyl)-ethyl]-piperazine] was tested. Which EC50 did it give?
A: The EC50 was 6 nM.

Q: `Cc1cccc(CN2CCN(c3nc(Cc4cccc(F)c4)no3)CC2)c1` [Cmpd089, 1-[3-(3-Fluoro-benzyl)-[1,2,4]oxadiazol-5-yl]-4-(3-methyl-benzyl)-piperazine] was tested. Which EC50 did it give?
A: The EC50 was 485 nM.

Q: With `COc1cccc(CCN2CCN(c3nc(Cc4cccc(F)c4)no3)CC2)c1` [Cmpd090, 1-[3-(3-Fluoro-benzyl)-[1,2,4]oxadiazol-5-yl]-4-[2-(3-methoxy-phenyl)-ethyl]-piperazine] as the compound, how does the EC50 read?
A: Its EC50 is 37 nM.

Q: For `Fc1ccc(Cc2noc(N3CCN(Cc4ccc(Cl)cc4)CC3)n2)cc1F` [Cmpd097, 1-(4-Chloro-benzyl)-4-[3-(3,4-difluoro-benzyl)-[1,2,4]oxadiazol-5-yl]-piperazine], which EC50 is on record?
A: Its EC50 is 486 nM.

Q: `COc1cccc(CCN2CCN(c3nc(Cc4ccc(F)c(F)c4)no3)CC2)c1` [Cmpd098, 1-[3-(3,4-Difluoro-benzyl)-[1,2,4]oxadiazol-5-yl]-4-[2-(3-methoxy-phenyl)-ethyl]-piperazine] was tested. Which EC50 did it give?
A: The EC50 was 3 nM.

Q: Which EC50 does the source give for `Fc1ccc(Cc2noc(N3CCN(CCc4ccc(Cl)cc4)CC3)n2)cc1F` [Cmpd102, 1-[2-(4-Chloro-phenyl)-ethyl]-4-[3-(3,4-difluoro-benzyl)-[1,2,4]oxadiazol-5-yl]-piperazine] here?
A: The EC50 was 17 nM.

Q: Which EC50 does the source give for `Cc1ccccc1CN1CCN(c2nc(Cc3ccc(F)c(F)c3)no2)CC1` [Cmpd104, 1-[3-(3,4-Difluoro-benzyl)-[1,2,4]oxadiazol-5-yl]-4-(2-methyl-benzyl)-piperazine] here?
A: Its EC50 is 37 nM.

Q: How did the EC50 turn out when `Cc1ccccc1CN1CCN(c2nc(C3(c4ccc(F)cc4)CC3)no2)CC1` [Cmpd108, 3-(1-(4-Fluorophenyl)cyclopropyl)-5-(4-(2-methylbenzyl)piperazin-1-yl)-1,2,4-oxadiazole] was run?
A: The EC50 was 758 nM.

Q: `COc1cccc(CCN2CCN(c3nc(C4(c5ccc(F)cc5)CC4)no3)CC2)c1` [Cmpd109, 3-(1-(4-Fluorophenyl)cyclopropyl)-5-(4-(3-methoxyphenethyl)piperazin-1-yl)-1,2,4-oxadiazole] was tested. Which EC50 did it give?
A: Its EC50 is 487 nM.

Q: Which EC50 does the source give for `Fc1ccc(C2(c3noc(N4CCN(CCc5ccc(Cl)cc5)CC4)n3)CC2)cc1` [Cmpd111, 5-(4-(4-Chlorophenethyl)piperazin-1-yl)-3-(1-(4-fluorophenyl)cyclopropyl)-1,2,4-oxadiazole] here?
A: Its EC50 is 237 nM.

Q: Which EC50 does the source give for `COc1cccc(CCN2CCN(c3nc(C(C)(C)c4ccc(F)cc4)no3)CC2)c1` [Cmpd118, 3-(2-(4-Fluorophenyl)propan-2-yl)-5-(4-(3-methoxyphenethyl)piperazin-1-yl)-1,2,4-oxadiazole] here?
A: Its EC50 is 105 nM.

Q: For `Cc1ccccc1CN1CCN(c2nc(C3(c4ccccc4)CC3)no2)CC1` [Cmpd123, 5-(4-(2-Methylbenzyl)piperazin-1-yl)-3-(1-phenylcyclopropyl)-1,2,4-oxadiazole], which EC50 is on record?
A: The EC50 was 849 nM.

Q: `COc1cccc(CCN2CCN(c3nc(C4(c5ccccc5)CC4)no3)CC2)c1` [Cmpd125, 5-(4-(3-Methoxyphenethyl)piperazin-1-yl)-3-(1-phenylcyclopropyl)-1,2,4-oxadiazole] was tested. Which EC50 did it give?
A: Its EC50 is 103 nM.

Q: Which EC50 does the source give for `Clc1ccc(CCN2CCN(c3nc(C4(c5ccccc5)CC4)no3)CC2)cc1` [Cmpd127, 5-(4-(4-Chlorophenethyl)piperazin-1-yl)-3-(1-phenylcyclopropyl)-1,2,4-oxadiazole] here?
A: The EC50 was 59 nM.

Q: For `FC1(F)Oc2ccc(CN3CCN(c4nc(C5(c6ccccc6)CC5)no4)CC3)cc2O1` [Cmpd128, 5-(4-((2,2-Difluorobenzo[d][1,3]dioxol-5-yl)methyl)piperazin-1-yl)-3-(1-phenylcyclopropyl)-1,2,4-oxadiazole], which EC50 is on record?
A: Its EC50 is 617 nM.

Q: `Cc1ccc(CN2CCN(c3nc(C4(c5ccccc5)CC4)no3)CC2)cc1` [Cmpd130, 5-(4-(4-Methylbenzyl)piperazin-1-yl)-3-(1-phenylcyclopropyl)-1,2,4-oxadiazole] was tested. Which EC50 did it give?
A: Its EC50 is 185 nM.

Q: For `COc1cc(CCN2CCN(c3nc(C4(c5ccccc5)CC4)no3)CC2)ccn1` [Cmpd131, 5-(4-(2-(2-Methoxypyridin-4-yl)ethyl)piperazin-1-yl)-3-(1-phenylcyclopropyl)-1,2,4-oxadiazole], which EC50 is on record?
A: Its EC50 is 135 nM.

Q: Which EC50 does the source give for `CC(C)CCN1CCN(c2nc(C3(c4ccccc4)CC3)no2)CC1` [Cmpd133, 5-(4-Isopentylpiperazin-1-yl)-3-(1-phenylcyclopropyl)-1,2,4-oxadiazole] here?
A: The EC50 was 30 nM.

Q: `Fc1ccc(C(F)(F)c2noc(N3CCN(Cc4ccc5c(c4)OCO5)CC3)n2)cc1` [Cmpd149, 5-(4-(Benzo[d][1,3]dioxol-5-ylmethyl)piperazin-1-yl)-3-(difluoro(4-fluorophenyl)methyl)-1,2,4-oxadiazole] was tested. Which EC50 did it give?
A: Its EC50 is 849 nM.

Q: For `COc1cccc(CCN2CCN(c3nc(C(F)(F)c4ccc(F)cc4)no3)CC2)c1` [Cmpd150, 3-(Difluoro(4-fluorophenyl)methyl)-5-(4-(3-methoxyphenethyl)piperazin-1-yl)-1,2,4-oxadiazole], which EC50 is on record?
A: Its EC50 is 199 nM.
